# Measurements published in patent US20250353873A1, “COMPOUNDS AND METHODS FOR MODULATING APOE EXPRESSION” (Ionis Pharmaceuticals, Inc., priority 2024, published 2025).
# Strand notation (5' to 3'): a small letter for the sugar, then the base; units joined by * are phosphorothioate-linked, units joined directly phosphodiester-linked; [ ] holds rarer units or linkages, { } end groups; capitals alone tell only the bases. [ms] = mesyl phosphoramidate linkage; e = 2'-O-(2-methoxyethyl) (MOE); k = constrained ethyl (cEt); [5mC] = 5-methylcytosine; d = 2'-deoxy (DNA)
# Key:
# human APOE RNA [1] = assay: Dose-dependent reduction of human APOE RNA in HepG2 cells, electroporation, 20,000 cells per well, normalized to PPIA (Example 4, Table 11); format: cell-based; settings: HepG2 cells, 20,000 cells per well, approximately 24 hours; for APOE RNA (% UTC) 5 nM / APOE RNA (% UTC) 13 nM / APOE RNA (% UTC) 33 nM / APOE RNA (% UTC) 82 nM / APOE RNA (% UTC) 205 nM / APOE RNA (% UTC) 512 nM / IC50: PPIA-normalized; for APOE RNA (% UTC) 1,280 nM: PPIA-normalized, 1,280 nM; for APOE RNA (% UTC) 3,200 nM: PPIA-normalized, 3,200 nM; for APOE RNA (% UTC) 8,000 nM: PPIA-normalized, 8,000 nM; for APOE RNA (% UTC) 20,000 nM: PPIA-normalized, 20,000 nM; for IC50: reduction of human APOE RNA
# Protocol: HepG2 cells plated at a density of 20,000 cells per well were treated by electroporation with various concentrations of modified oligonucleotide as specified in the tables below. […] APOE RNA levels were measured using the human primer probe set RTS3073 (described herein above). APOE RNA levels were normalized to human PPIA. Human PPIA was amplified using human primer probe set mk_cycloA_2nd (forward sequence […], designated herein as SEQ ID NO: 13; reverse sequence […], designated herein as SEQ ID NO: 14; probe sequence […], designated herein as SEQ ID NO: 15). Normalized results are presented in the table below as percent APOE RNA, relative to the amount of APOE RNA in untreated control cells (% UTC). The half maximal inhibitory concentration (IC50) of each modified oligonucleotide was calculated in GraphPad Prism 10 (GraphPad Software, San Diego, CA) and is also presented in the table below.
# human APOE RNA [2] = assay: Dose-dependent reduction of human APOE RNA in HepG2 cells, electroporation, 20,000 cells per well, average of GAPDH- and PPIA-normalized results (Example 4, Table 12); format: cell-based; settings: HepG2, 20,000 cells per well; for IC50: approximately 24 hours
# Protocol: HepG2 cells plated at a density of 20,000 cells per well were treated by electroporation with various concentrations of modified oligonucleotide as specified in the tables below. […] APOE RNA levels were measured using the human primer probe set RTS3073 (described herein above). APOE RNA levels were normalized to human GAPDH, and human PPIA. Human GAPDH was amplified using human primer probe set RTS104 (described herein above). Human PPIA was amplified using human primer probe set mk_cycloA_2nd (described herein above) The average of the GAPDH-normalized results and the PPIA-normalized results are presented in the table below as percent APOE RNA, relative to the amount of APOE RNA in untreated control cells (% UTC). The half maximal inhibitory concentration (IC50) of each modified oligonucleotide was calculated in GraphPad Prism 10 (GraphPad Software, San Diego, CA) and is also presented in the table below.
# human APOE RNA [3] = assay: Activity in APOE C57BL/6NTac-Apoeem7250 knock-in mice, single ICV bolus, 16 weeks (Example 12); format: in vivo; settings: single ICV bolus 300 μg, 16 weeks post treatment, normalized to mouse Ppia
# How it was run: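 A single 300 μg intracerebroventricular dose was given, with PBS-treated mice as reference; cortical and spinal cord tissue was taken 16 weeks later. RT-qPCR quantified human APOE RNA, Ppia-normalized, expressed relative to PBS animals (% control).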
# human APOE RNA [4] = assay: Potency (dose response, ED50) in APOE C57BL/6NTac-Apoeem7250 knock-in mice, 4 weeks (Example 14); format: in vivo
# How it was run: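 Knock-in mice (3–4 per group) received a single ICV bolus of oligonucleotide, with PBS as control. At four weeks, cortex and spinal cord RNA was analysed by RT-qPCR with a human primer probe set, normalized to mouse Ppia, and expressed as % PBS control. ED50 was calculated from the dose response.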
# human APOE RNA [5] = assay: Duration of action study in APOE C57BL/6NTac-Apoeem7250 knock-in mice (Example 16); format: in vivo; settings: 300 μg ICV
# How it was run: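 Knock-in mice (2-4 per group) received a single ICV bolus of 300 μg oligonucleotide or PBS. At various timepoints, cortex and spinal cord human APOE RNA was measured by RT-qPCR (RTS3073), normalized to mouse Ppia and expressed as % of PBS control.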
Substance,APOE RNA (% UTC) 5 nM (human APOE RNA [1]) [% UTC],APOE RNA (% UTC) 13 nM (human APOE RNA [1]) [% UTC],APOE RNA (% UTC) 33 nM (human APOE RNA [1]) [% UTC],APOE RNA (% UTC) 82 nM (human APOE RNA [1]) [% UTC],APOE RNA (% UTC) 205 nM (human APOE RNA [1]) [% UTC],APOE RNA (% UTC) 512 nM (human APOE RNA [1]) [% UTC],"APOE RNA (% UTC) 1,280 nM (human APOE RNA [1]) [% UTC]","APOE RNA (% UTC) 3,200 nM (human APOE RNA [1]) [% UTC]","APOE RNA (% UTC) 8,000 nM (human APOE RNA [1]) [% UTC]","APOE RNA (% UTC) 20,000 nM (human APOE RNA [1]) [% UTC]",IC50 (human APOE RNA [1]) [nM],APOE RNA (% UTC) (human APOE RNA [2]; 5 nM),APOE RNA (% UTC) (human APOE RNA [2]; 13 nM),APOE RNA (% UTC) (human APOE RNA [2]; 33 nM),APOE RNA (% UTC) (human APOE RNA [2]; 82 nM),APOE RNA (% UTC) (human APOE RNA [2]; 205 nM),APOE RNA (% UTC) (human APOE RNA [2]; 512 nM),"APOE RNA (% UTC) (human APOE RNA [2]; 1,280 nM)","APOE RNA (% UTC) (human APOE RNA [2]; 3,200 nM)","APOE RNA (% UTC) (human APOE RNA [2]; 8,000 nM)",further results
Aes^mCeoTeoTesGesGksTdsGdzAdzAdzTds^mCdsTdsTdsTdsAdzTksTksAesAe (eA*e[5mC]eTeT*eG*kG*dT*dG[ms]dA[ms]dA[ms]dT*d[5mC]*dT*dT*dT*dA[ms]kT*kT*eA*eA) [Compound No. 1757576],78,74,70,56,41,25,12,6,3,7,90,94,88,83,77,61,40,29,22,11,"APOE RNA (% UTC) (human APOE RNA [2]; 20,000 nM): 6 % UTC; IC50 (human APOE RNA [2]): 370 nM; APOE RNA (% control) Cortex (human APOE RNA [3]): 45 % control; APOE RNA (% control) Spinal Cord (human APOE RNA [3]): 14 % control; APOE RNA (% control) Cortex (human APOE RNA [4]; cortex, ICV dose 10 μg): 108 % control; APOE RNA (% control) Cortex (human APOE RNA [4]; cortex, ICV dose 30 μg): 121 % control; APOE RNA (% control) Cortex (human APOE RNA [4]; cortex, ICV dose 100 μg): 63 % control; APOE RNA (% control) Cortex (human APOE RNA [4]; cortex, ICV dose 300 μg): 37 % control; APOE RNA (% control) Cortex (human APOE RNA [4]; cortex, ICV dose 700 μg): 31 % control; ED 50 (μg) Cortex (human APOE RNA [4]; cortex, single ICV bolus, GraphPad Prism 10): 235.5 µg; APOE RNA (% control) Spinal Cord (human APOE RNA [4]; spinal cord, ICV dose 10 μg): 58 % control; APOE RNA (% control) Spinal Cord (human APOE RNA [4]; spinal cord, ICV dose 30 μg): 55 % control; APOE RNA (% control) Spinal Cord (human APOE RNA [4]; spinal cord, ICV dose 100 μg): 23 % control; APOE RNA (% control) Spinal Cord (human APOE RNA [4]; spinal cord, ICV dose 300 μg): 20 % control; APOE RNA (% control) Spinal Cord (human APOE RNA [4]; spinal cord, ICV dose 700 μg): 18 % control; ED 50 (μg) Spinal Cord (human APOE RNA [4]; spinal cord, single ICV bolus, GraphPad Prism 10): 23.0 µg; APOE RNA (% control) Cortex (human APOE RNA [5]; 7 days post-dose): 45 % control; APOE RNA (% control) Cortex (human APOE RNA [5]; 14 days post-dose): 32 % control; APOE RNA (% control) Spinal Cord (human APOE RNA [5]; 7 days post-dose): 42 % control; APOE RNA (% control) Spinal Cord (human APOE RNA [5]; 14 days post-dose): 25 % control"
^mCksTksTksGdzGdzTdzGdzAdzAdzTds^mCdsTdsTdsTdsAdsTdsTksAksAdzAk (antisense k[5mC]*kT*kT*dG[ms]dG[ms]dT[ms]dG[ms]dA[ms]dA[ms]dT*d[5mC]*dT*dT*dT*dA*dT*kT*kA*dA[ms]kA) [Compound No. 1785602],75,85,75,62,44,31,16,10,8,2,140,97,91,85,70,56,36,33,8,21,"APOE RNA (% UTC) (human APOE RNA [2]; 20,000 nM): 3 % UTC; IC50 (human APOE RNA [2]): 300 nM; APOE RNA (% control) Cortex (human APOE RNA [3]): 38 % control; APOE RNA (% control) Spinal Cord (human APOE RNA [3]): 20 % control; APOE RNA (% control) Cortex (human APOE RNA [5]; 7 days post-dose): 40 % control; APOE RNA (% control) Cortex (human APOE RNA [5]; 14 days post-dose): 30 % control; APOE RNA (% control) Spinal Cord (human APOE RNA [5]; 7 days post-dose): 56 % control; APOE RNA (% control) Spinal Cord (human APOE RNA [5]; 14 days post-dose): 28 % control"
